Measurements from patent US8450319B2, “Pyrrolopyridazinone compound” (Ube Industries, Ltd., priority 2006, dated 2013).
Where a name gives a salt, the structure may show the parent alone.

Legend:
PDE4 = assay: Measurement of PDE4 enzyme inhibiting action; type: biochemical, human; settings: PDE4 enzyme solution from polymorphonuclear leukocytes of healthy volunteer; 0.2 μM [3H]cAMP, 30° C., 30 minutes; read-out: PDE4 inhibition IC50 value
Protocol: Preparation of a PDE4 enzyme solution was carried out according to the method of Cooper et al. (Br. J. Pharmacol., 126, 1863 (1999)) by modifying a part thereof. Heparin-treated peripheral blood from healthy volunteer was stratified by a blood cell separating solution (Polymorphprep™, available from AXIS-SHIELD PoC AS CO.), and centrifugation was carried out at 20° C. with 1900 rpm for 27 minutes to obtain polymorphonuclear leukocytes. The polymorphonuclear leukocytes were washed with a Hanks' balanced salt solution, then, a mixed solution comprising 70% of 10 mM 3-morpholinopropane sulfonic acid buffer solution (pH 7.4) containing 1 mM EGTA, 1 mM magnesium acetate and 5 mM dithiothreitol and 30% of ethylene glycol was added thereto to dissolve the same under ice-cooling, and the obtained cell dissolved solution was used as a PDE4 enzyme solution.
Measurement of PDE4 activity was carried out according to the method of Owens, et al. (Biochem. J., 326, 53 (1997)) by modifying a part thereof. The PDE4 enzyme solution was incubated with a compound to be tested dissolved in dimethylsulfoxide in 80 mM Tris-HCl buffer solution (pH 7.4) containing 0.2 μM [^3H] cAMP, 0.1 mM cGMP, 20 mM MgCl2 and 12 mM 2-mercaptoethanol at 30° C. for 30 minutes. Trifluoroacetic acid (final concentration: 1%) was added to the mixture to stop the reaction, and the reaction mixture was added to neutral alumina column (BOND ELUT™, available from VARIAN INC.). After the column was washed with 100 mM Tris-HCl buffer solution (pH 8.0), [^3H] 5′-AMP was eluted with 2N sodium hydroxide solution, and radioactivity of the eluent was measured by a liquid scintillation analyzer.
A concentration of the compound to be tested which inhibits 50% of PDE4 activity was calculated from the relation between the concentration of the compound to be tested which had been added and PDE4 activity as an IC50 value.

Row | SMILES | IC50 (PDE4) [nM] | melting point
1 | O=c1[nH]ncc2[nH]c(-c3ccc(OC(F)F)c(OC4CCC4)c3)c(Br)c12 [Example 33, 3-Bromo-2-(3-cyclobutoxy-4-difluoromethoxyphenyl)-1,5-dihydropyrrolo[2,3-d]pyridazin-4-one] | 1.8 | 234 to 238 °C
2 | O=c1[nH]ncc2[nH]c(-c3ccc(OC(F)F)c4c3CC3(CCCC3)O4)cc12 [Example 49, 2-(7-Difluoromethoxy-2,3-dihydrobenzofuran-2-spiro-1′-cyclopentan-4-yl)-1,5-dihydropyrrolo[2,3-d]pyridazin-4-one] | 3.5 | 290 to 295 °C
3 | O=c1[nH]ncc2[nH]c(-c3ccc(OC(F)F)c(OC4CC4)c3)c(C3CC3)c12 [Example 14, 2-(3-Cyclopropoxy-4-difluoromethoxyphenyl)-3-cyclopropyl-1,5-dihydropyrrolo[2,3-d]pyridazin-4-one] | 4.7 | 248 to 249 °C
4 | O=c1[nH]ncc2[nH]c(-c3ccc(OC(F)F)c(OC4CCC4)c3)c(-c3ccccc3)c12 [Example 34, 2-(3-Cyclobutoxy-4-difluoromethoxyphenyl)-3-phenyl-1,5-dihydropyrrolo[2,3-d]pyridazin-4-one] | 8.7 | 280 to 284 °C
5 | COc1ccc(Cc2c(-c3ccc(OC(F)F)c(OC4CC4)c3)[nH]c3cn[nH]c(=O)c23)cn1 [Example 29, 2-(3-Cyclopropoxy-4-difluoromethoxyphenyl)-3-(6-methoxy-3-pyridylmethyl)-1,5-dihydropyrrolo[2,3-d]pyridazin-4-one] | 0.57 | 220 to 221 °C
6 | CCOCCc1c(-c2ccc(OC(F)F)c(OC3CC3)c2)[nH]c2cn[nH]c(=O)c12 [Example 67, 2-(3-Cyclopropoxy-4-difluoromethoxyphenyl)-3-(2-ethoxyethyl)-1,5-dihydropyrrolo[2,3-d]pyridazin-4-one] | 1.4 | 201 to 203 °C
7 | O=c1[nH]ncc2[nH]c(-c3ccc(OC(F)F)c(OC4CC4)c3)c(C(O)c3ccccc3)c12 (stereo not drawn) [Example 20, 2-(3-Cyclopropoxy-4-difluoromethoxyphenyl)-3-hydroxyphenylmethyl-1,5-dihydropyrrolo[2,3-d]pyridazin-4-one] | 0.23 | –
8 | C#Cc1c(-c2ccc(OC(F)F)c(OC3CC3)c2)[nH]c2cn[nH]c(=O)c12 [Example 16, 2-(3-Cyclopropoxy-4-difluoromethoxyphenyl)-3-ethynyl-1,5-dihydropyrrolo[2,3-d]pyridazin-4-one] | 13 | > 300 °C
9 | CCCCc1c(-c2ccc(OC(F)F)c(OC3CC3)c2)[nH]c2cn[nH]c(=O)c12 [Example 8, 3-Butyl-2-(3-cyclopropoxy-4-difluoromethoxyphenyl)-1,5-dihydropyrrolo[2,3-d]pyridazin-4-one] | 1.7 | 192 to 194 °C
10 | O=c1[nH]ncc2[nH]c(-c3ccc(OC(F)F)c(OCC4CC4)c3)c(-c3ccccc3)c12 [Example 38, 2-(3-Cyclopropylmethoxy-4-difluoromethoxyphenyl)-3-phenyl-1,5-dihydropyrrolo[2,3-d]pyridazin-4-one] | 7.1 | 249 to 251 °C
11 | O=c1[nH]ncc2[nH]c(-c3ccc(OC(F)F)c4c3C=CC(C3CC3)O4)cc12 (stereo not drawn) [Example 58, 2-(2-Cyclopropyl-8-difluoromethoxy-2H-chromen-5-yl)-1,5-dihydropyrrolo[2,3-d]pyridazin-4-one] | 36 | 232 to 242 °C
12 | CC1(C)C=Cc2c(-c3[nH]c4cn[nH]c(=O)c4c3Cl)ccc(OC(F)F)c2O1 [Example 52, 3-Chloro-2-(8-difluoromethoxy-2,2-dimethyl-2H-chromen-5-yl)-1,5-dihydropyrrolo[2,3-d]pyridazin-4-one] | 8 | 226 to 234 °C
13 | CC(C)Cc1c(-c2ccc(OC(F)F)c(OC3CC3)c2)[nH]c2cn[nH]c(=O)c12 [Example 9, 2-(3-Cyclopropoxy-4-difluoromethoxyphenyl)-3-isobutyl-1,5-dihydropyrrolo[2,3-d]pyridazin-4-one] | 1.8 | 239 to 241 °C
14 | CC(C)C#CCc1c(-c2ccc(OC(F)F)c(OC3CC3)c2)[nH]c2cn[nH]c(=O)c12 [Example 73, 2-(3-cyclopropoxy-4-difluoromethoxyphenyl)-3-(4-methyl-2-pentynyl)-1,5-dihydropyrrolo[2,3-d]pyridazin-4-one] | 0.23 | 139 to 143 °C
15 | Cc1c(-c2ccc(OC(F)F)c3c2C=CC(C)(C)O3)[nH]c2cn[nH]c(=O)c12 [Example 53, 2-(8-Difluoromethoxy-2,2-dimethyl-2H-chromen-5-yl)-3-methyl-1,5-dihydropyrrolo[2,3-d]pyridazin-4-one HCl adduct] | 17 | –
16 | O=c1[nH]ncc2[nH]c(-c3ccc(OC(F)F)c(OC4CC4)c3)c(Br)c12 [Example 3, 3-Bromo-2-(3-cyclopropoxy-4-difluoromethoxyphenyl)-1,5-dihydropyrrolo[2,3-d]pyridazin-4-one] | 5.2 | 267 to 270 °C (dec.)
17 | CCc1c(-c2ccc(OC(F)F)c(OCC3CC3)c2)[nH]c2cn[nH]c(=O)c12 [Example 37, 2-(3-Cyclopropylmethoxy-4-difluoromethoxyphenyl)-3-ethyl-1,5-dihydropyrrolo[2,3-d]pyridazin-4-one HCl adduct] | 6.6 | –
18 | O=c1[nH]ncc2[nH]c(-c3ccc(OC(F)F)c4c3C=CC3(CCCC3)O4)c(Cl)c12 [Example 57, 3-Chloro-2-(8-difluoromethoxy-2H-chromen-2-spiro-1′-cyclopentan-5-yl)-1,5-dihydropyrrolo[2,3-d]pyridazin-4-one] | 11 | > 300 °C
19 | O=c1[nH]ncc2[nH]c(-c3ccc(OC(F)F)c(OC4CC4)c3)c(Cc3ccccc3)c12 [Example 19, 3-Benzyl-2-(3-cyclopropoxy-4-difluoromethoxyphenyl)-1,5-dihydropyrrolo[2,3-d]pyridazin-4-one] | 0.18 | 215 to 217 °C
20 | CCCCc1c(-c2ccc(OC)c(OC3CC3)c2)[nH]c2cn[nH]c(=O)c12 [Example 44, 3-Butyl-2-(3-cyclopropoxy-4-methoxyphenyl)-1,5-dihydropyrrolo[2,3-d]pyridazin-4-one] | 2.6 | 198 to 200 °C
21 | O=c1[nH]ncc2[nH]c(-c3ccc(OC(F)F)c(OC4CC4)c3)c(COC3CCC3)c12 [Example 13, 3-Cyclobutoxymethyl-2-(3-cyclopropoxy-4-difluoromethoxyphenyl)-1,5-dihydropyrrolo[2,3-d]pyridazin-4-one] | 0.65 | 95 to 100 °C
22 | C=CC(O)c1c(-c2ccc(OC(F)F)c(OC3CC3)c2)[nH]c2cn[nH]c(=O)c12 (stereo not drawn) [Example 75, 2-(3-Cyclopropoxy-4-difluoromethoxyphenyl)-3-(1-hydroxy-2-propenyl)-1,5-dihydropyrrolo[2,3-d]pyridazin-4-one] | 1.5 | 202 to 203 °C
23 | CC(C)Oc1cc(-c2[nH]c3cn[nH]c(=O)c3c2Br)ccc1OC(F)F [Example 41, 3-Bromo-2-(4-difluoromethoxy-3-isopropoxyphenyl)-1,5-dihydropyrrolo[2,3-d]pyridazin-4-one] | 9.9 | –
